Test results from patent publication US20150225454A1, “TETRABRANCHED PEPTIDES AND ANALOGUES AS A NEW CLASS OF ANTIMICROBIALS AND THEIR PREPARATION THEREOF” (priority 2012, published 2015).
In brackets after ≈: the same amount, converted by molar mass. Where two headings read alike, the source gives them in different places. Where a SMILES comes first, the peptide text is derived from it. Bridges are numbered along the chain shown (N, C = ends). Roman numbers before positions name the chains, in order.

Key:
[1] = Acute in vivo toxicity in mice; design: species or system C57BL6 mice
Protocol: Acute toxicity of B4010 was assessed with C57BL6 (6-8 weeks old) wild type mice. Two healthy wild type mice were chosen for each route of administration. B4010 was delivered through intra-peritoneal (200 mg/kg) or (100 mg/kg) intra-venous routes. Two animals were used for each administration and monitored through 24/48 h to determine mortality, or signs of toxicity.

[2] = tested on: S. cerevisiae; format: cell-based
Protocol: A few identical colonies from WT and mutant strains were immediately inoculated and grown overnight in SD broth containing 0.1 mg/ml ampicilin at 30° C. Cells were harvested by centrifugation, washed with sterile water and frozen. Cells were plated again on SD agar plates and incubated at 37° C. for 48 h. Two or three identical colonies of the mutant strains were collected and inoculated in SD broth. Peptides were dissolved in sterile water and mixed with WT and mutant strains and incubated at 37° C. for 48 or 72 h in a test tube. The lowest concentration of the peptide that inhibited the growth of the yeast strain was determined by visual inspection.

[3] = tested on: C. albicans; format: cell-based; details: 50% tear fluid
Protocol: For all the experiments, unless otherwise stated, ATCC 10231 strain was used. B4010 (1 mg/ml) was incubated with trypsin (enzyme:peptide ratio 1:100) at 37° C. 20 μL aliquot of this mixture was withdrawn at various time intervals (0.5, 1, 2, 4 and 6 h) and mixed with 1 μL of trypsin inhibitor. The antifungal activity of the peptide was determined by adding this mixture to 180 μl of inoculum and monitoring the growth at OD600 for 24 h. Similar experiments performed in the presence of trypsin/trypsin inhibitor (without B4010) were used as a positive control. For assessing the antifungal activity in tear fluid (TF), the peptide was dissolved in freshly collected rabbit TF and incubated at 37° C. for 6 h. After incubation, an equal volume of an overnight culture of C. albicans (˜10^6 CFU/ml) was mixed with peptides in tear fluid and incubated at 37° C. for 24 h. The final concentrations of the peptide were at 4.4, 8.8 and 22 μM. A 100 μL aliquot of serial dilutions (10^2 or 10^3 times) of this mixture were inoculated on a SD agar plate and then incubated for 48 h at 37° C. Culture alone and culture with 50% tear fluid served as the positive control. The data was expressed in % killing with respect to culture without tear fluid.

[4] = tested on: C. albicans; test: Candidacidal activity (cell viability) in the presence of metal ions; format: cell-based; details: 5.5 μM
Protocol: To study the effects of metal ions on viability, the broth solution containing C. albicans (OD600=0.4-0.6) was adjusted to appropriate final concentrations of metal ions, incubated with 5.5 μM of B4010 for 6 h and the cell viability was determined as before after 48 h.

[5] = tested on: C. albicans; test: microbe, parasite or virus in culture; format: cell-based
Protocol: The yeast strains were cultivated and suspended in Sabouraud's Dextrose (SD) broth diluted at one sixth at a starting OD600=˜0.08 in a flat-bottomed microtitre plate. A serial dilution of peptide in the same broth was mixed with the inoculum to give a final peptide concentration of 0.4-22 μM. The antifungal activity was assessed by monitoring the OD600 in cycles of 30 minutes and an orbital shaking at 100 rpm using an Infinite M200 microplate reader (Tecan Group Ltd., Switzerland) for 24/48 h at 37° C. Cultures without peptides were used as positive controls and broth alone or with 22 μM peptide served as negative controls. The minimum concentration required for complete inhibition was assessed by both visible observations as well as by measuring the OD600 and taken as the MIC. Each experiment was repeated in triplicates.

[6] = tested on: C. albicans ATCC10231; test: MIC in the presence of monovalent and divalent metal ions; format: cell-based
Protocol: For studying the effects of metal ions, SD broth was adjusted with appropriate concentrations of salts to yield a final concentration of 100 and 135 mM for NaCl and KCl and 0.5-2 mM for CaCl2 and MgCl2. MIC determinations were carried out as described above. C. albicans ATCC10231 cells and salts in broth were taken as a positive control. Salts alone (NaCl, KCl, and CaCl2 and MgCl2) in broth or with 22 μM peptide served as a negative control.

[7] = Calcein release from mammalian model membrane SUVs; details: PC:Cholesterol, compared with fungal model membrane
Protocol: Small unilamellar vesicles (SUVs) were prepared using PC/PE/PI or PS lipids (5:2.5:2.5) containing 15 wt % ergosterol or PC/Cholesterol (10:1) (Makovitzki et al., 2006). For the preparation of PC/PE/PI or PS/Erg SUV, the lipids were dissolved in chloroform/methanol (2:1, v/v) in a glass tube. Ergosterol was dissolved in same solvent and added to lipid mixture to make final ergosterol content of 15 wt %. The Lipid-ergosterol mixture was dried using nitrogen gas to form lipid layer. The film was hydrated in a buffer containing 20 mM PBS (pH 7), vortexed and sonicated. Each cycle of sonication (5 sec, 40° C.) is followed by freezing in liquid nitrogen and thawing on a water bath kept at 37° C. The procedure was repeated 5-6 times until an optically clear dispersion appeared. The SUV was divided into two parts. To the first part 50 mM calcein was added and incubated for 1 h. […] Changes in the fluorescence signal after addition of peptide or Triton X-100 was measured on a PTI spectrofluorometer, using an excitation wavelength of 480 nm and emission wavelength of 512 nm. The Percentage calcein released at each time point was calculated using the equation: […]
Where A0 is the observed fluorescence intensity upon addition of peptides, Amin is the average intensity at the baseline (before peptide addition), Amax is the average intensity at the saturation phase after adding 1% Triton X-100. […]

Structure (SMILES): CC(C)[C@H](NC(=O)[C@H](CCCCN)NC(=O)[C@H](CCCNC(=N)N)NC(=O)CNC(=O)[C@@H](N)CCCNC(=N)N)C(=O)N[C@H](C(=O)N[C@@H](CCCNC(=N)N)C(=O)N[C@@H](CCCNC(=N)N)C(=O)NCCCC[C@H](NC(=O)[C@H](CCCNC(=N)N)NC(=O)[C@H](CCCNC(=N)N)NC(=O)[C@@H](NC(=O)[C@@H](NC(=O)[C@H](CCCCN)NC(=O)[C@H](CCCNC(=N)N)NC(=O)CNC(=O)[C@@H](N)CCCNC(=N)N)C(C)C)C(C)C)C(=O)NCCCC[C@H](NC(=O)[C@H](CCCCNC(=O)[C@H](CCCNC(=N)N)NC(=O)[C@H](CCCNC(=N)N)NC(=O)[C@@H](NC(=O)[C@@H](NC(=O)[C@H](CCCCN)NC(=O)[C@H](CCCNC(=N)N)NC(=O)CNC(=O)[C@@H](N)CCCNC(=N)N)C(C)C)C(C)C)NC(=O)[C@H](CCCNC(=N)N)NC(=O)[C@H](CCCNC(=N)N)NC(=O)[C@@H](NC(=O)[C@@H](NC(=O)[C@H](CCCCN)NC(=O)[C@H](CCCNC(=N)N)NC(=O)CNC(=O)[C@@H](N)CCCNC(=N)N)C(C)C)C(C)C)C(=O)N[C@@H](CCCCN)C(=O)O)C(C)C [Peptide B4010] (I: H-RGRKVVRRKKK-OH / II: H-RGRKVVRRK / III: H-RGRKVVRR / IV: H-RGRKVVRR; amide I:9-IV:C, I:10-II:C, II:9-III:C; N-terminus and C-terminus assumed)
- mortality, morbidity or toxicity ([1]; IP 200 mg/kg): no sign of mortality, morbidity or toxicity
- mortality, morbidity or toxicity ([1]; IV 100 mg/kg): no sign of mortality, morbidity or toxicity
- MIC ([2]; RH448, Wildtype, Ergosterol (77%)): 5.5 µM (≈ 25.1 µg/mL)
- MIC ([2]; RH5684, erg6Δ): 2.8 µM (≈ 12.8 µg/mL)
- MIC ([2]; RH5812, erg2Δ): 1.4 µM (≈ 6.39 µg/mL)
- MIC ([2]; RH5930, erg3Δerg6Δ): 1.4 µM (≈ 6.39 µg/mL)
- MIC ([2]; RH6826, 7-deoxycholesterol): 2.8 µM (≈ 12.8 µg/mL)
- MIC ([2]; RH6827, Campasterol): 2.8 µM (≈ 12.8 µg/mL)
- MIC ([2]; RH6829, Cholesterol): 2.8 µM (≈ 12.8 µg/mL)
- decrease in MIC of ergΔ mutants compared to the wild type ([2]; all the ergΔ mutants): 2-4 fold
- decrease in MIC compared to the wild type ([2]; erg2Δ, erg3Δ, erg3Δerg6Δ and erg4Δerg5Δ): 4 folds
- increased sensitivity compared to the wild type ([2]; erg2Δerg6Δ and erg6Δ): 2 fold
- candidacidal activity ([3]; 22 μM): no loss of activity
- candidacidal activity ([3]; 4.4 and 8.8 μM): moderately suppressed
- candidacidal activity ([4]; high concentration of KCl): slight decrease in the candidacidal activity
- cell viability ([4]; presence of monovalent and divalent cations): complete loss of viable cells
- MIC for two C. albicans clinical isolates [5]: 0.34 µM
- MIC values, C. albicans [5]: 0.37 to 1.4 µM
- decrease in MIC compared to the co-valent dimer [5]: 4-10 fold
- activity superior to natamycin ([5]; ATCC reference and clinical isolates): 2-4 times
- increase in MIC ([6]; 25 mM KCl): 8 fold
- increase in MIC compared to medium without KCl ([6]; 100 mM KCl): > 16 fold
- decrease in MIC ([6]; 135 mM NaCl): 2 fold
- change in MIC ([6]; high concentration of Ca2+ and Mg2+ ions): two fold increase
- increase in MIC ([6]; physiological concentrations of divalent cations): 2 fold
- calcein leakage [7]: less calcein leakage
